Data as given in US20090048301A1 (IMCLONE SYSTEMS INCORPORATED, priority 2003, published 2009).
Read-outs that look alike come from different tables or passages of the source.

Legend:
[1] = tested on: bovine tubulin; experiment: In vitro tubulin polymerization assay (turbidity at 340 nm); format: biochemical; conditions: 10 μM compound, 30 minute data point, vs 1% DMSO control
Method in brief: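 Bovine tubulin (97%, <3% MAPs) at 3 mg/ml final in G-PEM pH 7 with 1 mM GTP and 5% glycerol, added cold to compound wells at 37° C (1% DMSO final). A340 read each minute for 30 min; percent inhibition from 30-min point versus DMSO control.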

[2] = tested on: A431 human cancer cell line; experiment: Sulphorhodamine B (SRB) growth inhibition assay; format: cell-based; conditions: A-431, A431 cells, 48 hours, read-out: SRB Assay: μM required to inhibit tumor cell growth by 50% (GI50)
Method: The in vitro growth inhibition activity of the compounds was determined by the Sulphorhodamine B assay. (Skehan P, Storeng R, Scudiero D, Monks A, McMahon J, Vistica D, Warren J T, Bokesch H, Kenney S, Boyd M R. New colorimetric cytotoxicity assay for anticancer-drug screening. J Natl Cancer Inst 82, 1107-1112, 1990). Sulphorhodamine B binds to basic amino acids and stains proteins which can be eluted and detected spectrophotometically by measuring absorbance at 515 nm. The absorbance was indicative of the total protein content of the cells fixed to the walls of the plate well at a given time by trichloroacetic acid, which is a measure of the viable cell concentration.
The in vitro growth inhibition activity of the compounds was determined using a Sulphorhodamine B assay. See, Skehan et al., “New colorimetric cytotoxicity assay for anticancer-drug screening,” J. Natl. Cancer Inst., 82, 1107-1112, (1990). Sulphorhodamine B binds to basic amino acids and stains proteins which can be eluted and detected spectrophotometically by measuring absorbance at 515 nm. The absorbance indicates the total protein content of the cells fixed to the walls of the plate well at a given time by trichloroacetic acid, which is a measure of the viable cell concentration.
The reagents used in the assay can be purchased from commercial sources and include Sulphorhodamine B 0.4% (w/v) in 1% (v/v) acetic acid (Sigma Cat#S-1402); trichloroacetic acid 50% (w/v) in deionized water, working solution (Sigma Cat#T-9159); and trizma base (Tris) 10 mM working solution, pH 7.5 (Sigma Cat#T-7693).
The procedure was cared out over four days. In Day 1, the cells were seeded in a seed 10,000 cells/100 μL/well in 96 well plate in duplicates as per template. Also, seed cells in extra plate for time zero (To plate). Thereafter, the cells were incubated for 24 hours at 37° C. with 5% CO2.
On Day 2, the test compound was added to the cells at five log doses from 100 μM to 0.01 μM (Volume of addition=100 μL in 1% DMSO for all compound concentrations, Control treatment=1% DMSO).
The compounds were prepared by weighing the test compounds in 1.5 ml eppendorf tubes and calculating the volume of DMSO to be added to bring the concentration of the compound to 20 mM. Thereafter, a 20 mM stock was made and diluted by four 10 fold dilutions in DMSO to get 2, 0.2, 0.02 and 0.002 mM solutions. Each solution was diluted 100 times (10 μL to 1 ml medium) and a further addition to the culture plate (100 μL) to half the concentration of cells was made. The final well concentration for 20 mM stock was 100 μM and similarly with other test concentrations.
The cells were incubated for 48 hours at 37° C. with 5% CO2 and terminated by adding 50 μL of 50% cold trichloroacetic acid (10% to final). Thereafter, the cells were incubated for one hour at 4° C.
On Day 4, the cells were fixed to the wells by the addition of 50 μL of 50% cold trichloroacetic acid (10% to final) and incubated for 1 hour at 4° C. The supernatant was discarded by force inverting the plate into the sink followed by washing thrice with tap water and the plates are then air-dried. 100 μL SRB (0.4% in 1% acetic acid) was added to each well and the plates were incubated for 10 minutes at room temperature. Unbound dye was removed by force inverting the plate into the sink and washing thrice with 1% acetic acid. Thereafter, the plates were allowed to air dry.
Bound SRB was solubilized with 100 μL of 10 mM Tris, pH 7.4 and the absorbance was measured at a wavelength of 515 nm.
A sample set of calculations was performed as follows. The percentage growth was calculated by T-To/C-To X 100 if T>To and T-To/To X 100 if T<To, wherein T is Test OD (with compound), C is Control OD, To is Time Zero OD (cell growth at the time of drug addition). […]

[3] = tested on: A431, human epidermoid carcinoma cells; experiment: Cell cycle analysis (FACS), mitotic arrest in G2/M; format: cell-based; conditions: read-out: FACS Assay: concentration required to achieve inhibition in FACS assay
Method in brief: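 A431 cells, 500,000/well at treatment, exposed to compounds at 0.01–1 μM final (0.1% DMSO) for 24 h. Ethanol-fixed cells RNase-treated (1 μg/ml, 37° C., 15 min), stained with propidium iodide (50 μg/ml, 30 min, RT). DNA ploidy by flow cytometry; mitotic arrest scored as G2/M accumulation.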

Row | SMILES | Tubulin Assay: percent inhibition at 10 μM based on 30 minute data [1] | GI50 [2] | minimal effective concentration ([3]; Homo sapiens, A-431, 24 h) | minimal effective concentration ([3]; 24 hours)
1 | FC(F)(F)c1ccc(-c2nnc(-c3cccnc3NCc3cccnc3)[nH]2)cc1 [Compound 86, Pyridin-3-ylmethyl-{3-[5-(4-trifluoromethyl-phenyl)-4H-[1,2,4]triazol-3-yl]-pyridin-2-yl}-amine] | 31% | 2.2 µM | – | –
2 | COc1cc(Nc2ncccc2-c2nnc(Nc3ccc(OC)c(OC)c3)o2)cc(OC)c1 [Compound 178, (3,5-Dimethoxy-phenyl)-{3-[5-(3,4-dimethoxy-phenylamino)-[1,3,4]oxadiazol-2-yl]-pyridin-2-yl}-amine] | 40% | 0.3 µM | – | –
3 | O=C1CCCN1CCCNc1ncccc1-c1nnc(Nc2ccc3c(c2)OCO3)o1 [Compound 194, 1-(3-{3-[5-(Benzo[1,3]dioxol-5-ylamino)-[1,3,4]oxadiazol-2-yl]-pyridin-2-ylamino}-propyl)-pyrrolidin-2-one] | 80% | 3 µM | – | –
4 | Fc1ccc(OCc2nnc(-c3cccnc3NCc3ccc4c(c3)OCO4)[nH]2)cc1 [Compound 109, Benzo[1,3]dioxol-5-ylmethyl-{3-[5-(4-fluoro-phenoxymethyl)-4H-[1,2,4]triazol-3-yl]-pyridin-2-yl}-amine] | 41% | 30 µM | – | –
5 | COc1cc(Nc2nnc(-c3cccnc3Nc3cc(OC)cc(OC)c3)o2)cc(OC)c1 [Compound 187, (3,5-Dimethoxy-phenyl)-{3-[5-(3,5-dimethoxy-phenylamino)-[1,3,4]oxadiazol-2-yl]-pyridin-2-yl}-amine] | 48% | 80 µM | – | –
6 | COc1ccc(Nc2nnc(-c3cccnc3Nc3ccc4c(c3)OCO4)[nH]2)cc1 [Compound 8, Benzo[1,3]dioxol-5-yl-{3-[5-(4-methoxy-phenylamino)-4H-[1,2,4]triazol-3-yl]-pyridin-2-yl}-amine] | 100% | 0.3 µM | – | –
7 | COc1cc(Nc2nnc(-c3cccnc3NCc3ccc4c(c3)OCO4)[nH]2)cc(OC)c1 [Compound 16, Benzo[1,3]dioxol-5-ylmethyl-{3-[5-(3,5-dimethoxy-phenylamino)-4H-[1,2,4]triazol-3-yl]-pyridin-2-yl}-amine] | 41% | 2.5 µM | – | –
8 | COc1cc(OC)cc(-c2nnc(-c3cccnc3NCc3cccnc3)[nH]2)c1 [Compound 87, {3-[5-(3,5-Dimethoxy-phenyl)-4H-[1,2,4]triazol-3-yl]-pyridin-2-yl}-pyridin-3-ylmethyl-amine] | 85% | 30 µM | – | –
9 | FC(F)(F)c1ccc(-c2nnc(-c3cccnc3NCc3ccc4c(c3)OCO4)[nH]2)cc1 [Compound 84, Benzo[1,3]dioxol-5-ylmethyl-{3-[5-(4-trifluoromethyl-phenyl)-4H-[1,2,4]triazol-3-yl]-pyridin-2-yl}-amine] | 27% | 2.5 µM | – | –
10 | c1ccc(-c2cnc(Nc3ccc4c(c3)OCCO4)o2)c(NCc2ccc3c(c2)OCO3)c1 [Compound 244, (5-{2-[(Benzo[1,3]dioxol-5-ylmethyl)-amino]-phenyl}-oxazol-2-yl)-(2,3-dihydro-benzo[1,4]dioxin-6-yl)-amine] | 96% | – | 1 µM | –
11 | CS(=O)(=O)c1ccc(-c2nnc(-c3cccnc3NCc3ccc4c(c3)OCCO4)[nH]2)cc1 [Compound 105, (2,3-Dihydro-benzo[1,4]dioxin-6-ylmethyl)-{3-[5-(4-methanesulfonyl-phenyl)-4H-[1,2,4]triazol-3-yl]-pyridin-2-yl}-amine] | 91% | – | 1 µM | –
12 | COc1cc(CNc2ccccc2-c2cnc(Nc3ccc4c(c3)OCCO4)o2)cc(OC)c1 [Compound 246, (2,3-Dihydro-benzo[1,4]dioxin-6-yl)-{5-[2-(3,5-dimethoxy-benzylamino)-phenyl]-oxazol-2-yl}-amine] | 72% | – | 1 µM | –
13 | c1coc(CNc2ncccc2-c2nnc(Nc3ccc4c(c3)OCCO4)o2)c1 [Compound 164, {3-[5-(2,3-Dihydro-benzo[1,4]dioxin-6-ylamino)-[1,3,4]oxadiazol-2-yl]-pyridin-2-yl}-furan-2-ylmethyl-amine] | 73% | – | – | 0.1 µM
14 | c1cnc(NCc2ccncc2)c(-c2nnc(Nc3ccc4c(c3)OCCO4)o2)c1 [Compound 206, {3-[5-(2,3-Dihydro-benzo[1,4]dioxin-6-ylamino)-[1,3,4]oxadiazol-2-yl]-pyridin-2-yl}-pyridin-4-ylmethyl-amine] | 94% | – | 0.025 µM | –
15 | c1ccc(CNc2ncccc2-c2nnc(Nc3ccc4c(c3)OCCO4)o2)nc1 [Compound 207, {3-[5-(2,3-Dihydro-benzo[1,4]dioxin-6-ylamino)-[1,3,4]oxadiazol-2-yl]-pyridin-2-yl}-pyridin-2-ylmethyl-amine] | 87% | – | 0.025 µM | –
16 | CS(=O)(=O)c1ccc(-c2nnc(-c3cccnc3NCC3CCCO3)[nH]2)cc1 (stereo not shown) [Compound 106, {3-[5-(4-Methanesulfonyl-phenyl)-4H-[1,2,4]triazol-3-yl]-pyridin-2-yl}-(tetrahydro-furan-2-ylmethyl)-amine] | 79% | – | 0.1 µM | –
17 | c1cnc(OCc2ccc3c(c2)OCO3)c(-c2nnc(Nc3ccc4c(c3)OCCO4)[nH]2)c1 [Compound 71, {5-[2-(Benzo[1,3]dioxol-5-ylmethoxy)-pyridin-3-yl]-4H-[1,2,4]triazol-3-yl}-(2,3-dihydro-benzo[1,4]dioxin-6-yl)-amine] | 83% | – | 0.1 µM | –
18 | c1cnc(NCC2COCCO2)c(-c2nnc(Nc3ccc4c(c3)OCCO4)o2)c1 (stereo not shown) [Compound 203, {3-[5-(2,3-Dihydro-benzo[1,4]dioxin-6-ylamino)-[1,3,4]oxadiazol-2-yl]-pyridin-2-yl}-[1,4]dioxan-2-ylmethyl-amine] | 69% | – | 0.1 µM | –
19 | COc1cc(Nc2nnc(-c3cccnc3NCc3ccco3)o2)cc(OC)c1OC [Compound 197, Furan-2-ylmethyl-{3-[5-(3,4,5-H trimethoxy-phenylamino)-[1,3,4]oxadiazol-2-yl]-pyridin-2-yl}-amine] | 66% | – | 1 µM | –
20 | COc1ccc(CNc2ncccc2-c2nnc(Nc3ccc4c(c3)OCCO4)[nH]2)cc1 [Compound 51, {3-[5-(2,3-Dihydro-benzo[1,4]dioxin-6-ylamino)-4H-[1,2,4]triazol-3-yl]-pyridin-2-yl}-(4-methoxy-benzyl)-amine] | 68% | – | 1 µM | –
